Series [1] deals with μ-opioid receptor (Homo sapiens, UniProt P35372). Briefly: Radioligand receptor binding assay, competition with [3H]diprenorphine, μ-receptor. Conditions: for inhibition at 1 µM: read-out: inhibition rate of medicine at 1 × 10^−6 M (μ); for Ki: Ki=IC50/(1+[L]/Kd); for IC50: competition binding, μ-opioid receptor; for receptor selectivity μKi/κKi: ratio of μ Ki to κ Ki. Here is the method:
(§1) The experiment test tubes are divided into total binding tubes and non-specific binding tubes, and several groups of sample tubes added with competitive ligand in different concentrations are provided. The total binding tube is added with expressed membrane receptor protein equivalent to 20 μg and [^3H] diprenorphine (0.5 nM) (1.44 Pbq/mol broad spectrum opioid antagonist, Amersham), the corresponding non-specific binding tubes are further added with 1 μM Naloxone (broad spectrum opioid antagonist, Sigma), the sample tubes are added with different concentrations compounds which are to be screened, the final volume is regulated to 100 μl with 50 mM Tris(Amresco)-HCl (pH 7.4). Incubation is performed at 30° C. for 30 min, and the tubes are placed into ice water to stop reaction. Negative pressure filter is performed in Millipore sample collector via GF/(Whatman) glass fiber filter paper. Ice cold 50 mM Tris-HCl (pH 7.4) is used to wash the filter paper for three times, each for 4 ml; Dry the filter paper and place it in 0.5 ml Eppendorff tube, and add 0.5 ml of lipophilic scintillator liquid (Reagent No. 1 Factory Of Shanghai Chemical Reagent Co. Ltd). Beckman LS 6500 multifunctional liquid scintillation counter is adopted for measuring radiation intensity, calculating inhibition rate is calculated, each concentration has three duplicated tubes, and each tube is independently tested for 3-4 times.
(§2) IC50 value is calculated by software Prism 4.0.
(§3) Ki=IC50/(1+[L]/Kd), ([L] is the concentration of added marked ligand, and Kd is equilibrium dissociation constant of radioligand).

Series [2] addresses κ-opioid receptor (Homo sapiens, UniProt P41145). Briefly: Radioligand receptor binding assay, competition with [3H]diprenorphine, κ-receptor. The conditions noted are these: for Ki: Ki=IC50/(1+[L]/Kd); for dpm: competition binding with κ-receptor, [3H]diprenorphine 0.5 nM; for dpm / inhibition at 10 µM / inhibition rate %: compound at 1 × 10^−5 M; for IC50: competition binding, κ-opioid receptor; for inhibition at 10 µM: read-out: inhibition rate %. The method, then:
as §1, §2, §3

For series [3], the system named is Kuming mice. Briefly: Mice hot plate method analgesic test. The conditions noted are these: for Analgesic experiment result, Mice hot plate method: subcutaneous injection, hot plate 55° C., value with range in brackets. The series is classed as in vivo. Here is the method: (§4) Analgesic efficacy of the subject compound is determined by using model derived from mice hot plate method and mice writhing method (Methodology of Pharmacological Experiment, edition II, Xu Shuyun, People Medical Publishing Company, 1991).
Experiment Animal: Kuming Mice (Female, 18-22 g)
(§5) • (1) Selection of normal mice: the test room temperature is controlled at about 22° C., temperature of the hot plate of an pain threshold dector is regulated to 55° C., the duration from the moment the mice is put on the hot plate to the moment the mice start to lick the hind paw is recorded as pain threshold value, the test is repeated twice at interval of 20 min, and the mice with average pain threshold value no more than 30 sec is qualified mice. • (2) Experimental mice: the qualified mice are randomly divided into groups each having 10 mice, and subjected to subcutaneous injection. • Each group is tested for mice pain response time once every 5, 15, 30, 50, and 60 minute after administration, and the medicine is believed to be effective which response time beyond 1 min. • Mice Writhing Assay • I-6 is administered via subcutaneous injection, then 0.6% acetic acid solution (10 ml/kg) is administered after 30 min, and the number of the mice writhing within 15 min is recorded. 3.
Background: In hot-plate and tail-flick tests a longer latency is read as antinociception.

Series [4] concerns Kuming mice. In words: Analgesic tolerance test (hot plate, 9 days administration). The series is classed as in vivo. Conditions: morphine 7 mg/kg subcutaneous injection. The method, then:
Kuming mice (18-20 g, male) are selected for test, and divided into physiological saline group, morphine group, and I-6 group.
physiological saline group: subcutaneous administration, 0.2 mL for each mice.
Morphine group: Day 1-3, subcutaneous injection, 7 mg/kg • Day 4-7, subcutaneous injection, 10 mg/kg • Day 8-9, subcutaneous injection, 15 mg/kg I-6 group: Day 1-9, subcutaneous injection, 25 μg/kg
Hot plate method in mice is adopted as model, administration lasts for 9 days, analgesic effects before and after administration are determined every day, and if analgesic effect is attenuated after continuous administration of 3 days, the drug concentration will be increased, and if analgesic effect don't change, the drug concentration will not be changed.

Series [5] deals with Kuming mice. Briefly: Mice writhing assay (acetic acid) analgesic test. It is filed as in vivo. The conditions noted are these: subcutaneous injection, 0.6% acetic acid after 30 min, writhing within 15 min. Here is the method:
as §4, §5

The mark [6] stands for this setting: 1 × 10^−6 M, printed in the IC50 (M) μ column.

We go through 12 compounds from patent US7820692B2, “Tetrahydro isoquinoline derivatives, preparation methods and medicinal uses thereof” (China Pharmaceutical University, priority 2006, dated 2010).

Entries after “also recorded” stand apart in the source; their conditions may differ. Marks after values point to notes of the source that are not given here.

With `COc1ccc2c(c1)C(CN1CCCC1)N(C(=O)C1CC(=O)c3ccccc31)CC2` (centres unmarked) [I-14, 7-methoxy-1-(pyrrolidine-1-methyl)-2-(2,3-dihydro-inden-3-keto-1-carbonyl)-1,2,3,4-tetrahydroisoquinoline], the inhibition at 1 µM in series [1] (setting [6]) is 14.6%. In series [2], the inhibitory constant (Ki) came to 270 nM, the dpm is reported as 972.69 dpm, the concentration for half-maximal inhibition (IC50) was found to be 912 nM and the inhibition at 10 µM turned out to be 77.3%.

In the case of `CN1CC[C@]23c4c5ccc(O)c4O[C@H]2[C@@H](O)C=C[C@H]3[C@H]1C5` [Morphine, morphine], the “Analgesic experiment result, Mice hot plate method” value in series [3] is 6.949(5.682-8.500) mg/kg. The “analgesic effect on continuous administration” value is “no significant analgesic effect; also recorded: tolerance and efficacy of zero” in series [4] (Day 3); “attenuated analgesic effect from Day 2” in series [4] (from Day 2). Moreover, in series [5], the “Analgesic experiment result, Mice writhing assay” value was 0.840(0.558-1.265) mg/kg.

On to `COc1cc2c(cc1OC)C(C(=O)N1CCc3ccccc3C1CN1CCCC1)CC2=O` (centres unmarked) [I-5, 1-(pyrrolidine-1-methyl)-2-(5,6-dimethoxy-2,3-dihydro-inden-3-keto-1-carbonyl)-1,2,3,4-tetrahydroisoquinoline], for which, in series [1], the Ki turned out to be 106 nM, the IC50 amounted to 318 nM and the “receptor selectivity μKi/κKi” value was determined as 79. Moreover, in series [2], the Ki came to 1.34 nM, the dpm is listed as 260.58 dpm, the 50% inhibitory concentration (IC50) is 4.69 nM and the inhibition at 10 µM stood at 99.5%.

`COc1ccc2c(c1)C(CN1CCCC1)N(C(=O)C1CC(=O)c3ccc(Cl)cc31)CC2` (centres unmarked) [I-18, 7-methoxy-1-(pyrrolidine-1-methyl)-2-(6-chloro-2,3-dihydro-inden-3-keto-1-carbonyl)-1,2,3,4-tetrahydroisoquinoline] displayed a melting point of 151 to 153 °C. In series [1] (setting [6]), the inhibition at 1 µM was 14%. Moreover, in series [2], the inhibition constant (Ki) worked out at 17.1 nM, the dpm was 281.00 dpm, the half-maximal inhibitory concentration (IC50) turned out to be 59.9 nM and the inhibition at 10 µM stood at 100%.

For the compound `COc1cc2c(cc1OC)C(CN1CCCC1)N(C(=O)C1CC(=O)c3ccc(Cl)cc31)CC2` (centres unmarked) [I-30, 6,7-dimethoxy-1-(pyrrolidine-1-methyl)-2-(6-chloro-2,3-dihydro-inden-3-keto-1-carbonyl)-1,2,3,4-tetrahydroisoquinoline], in series [2], the dpm is 2269.71 dpm and the inhibition rate % worked out at 40.6%.

In series [2], `COc1cc2c(cc1OC)C(CN1CCCC1)N(C(=O)C1CC(=O)c3ccccc31)CC2` (centres unmarked) [I-26, 6,7-dimethoxy-1-(pyrrolidine-1-methyl)-2-(2,3-dihydro-inden-3-keto-1-carbonyl)-1,2,3,4-tetrahydroisoquinoline] came in with a dpm of 1883.77 dpm and an inhibition rate % of 51.9%.

On to `COc1ccc2c(c1)C(C(=O)N1CCc3ccccc3C1CN1CCCC1)CC2=O` (centres unmarked) [I-13, 1-(pyrrolidine-1-methyl)-2-(6-methoxy-2,3-dihydro-inden-3-keto-1-carbonyl)-1,2,3,4-tetrahydroisoquinoline], for which, in series [1], the Ki was found to be 133 nM, the half-maximal inhibitory concentration (IC50) is 399 nM and the “receptor selectivity μKi/κKi” value worked out at 146. Further, in series [2], the affinity corresponds to a Ki of 0.909 nM, the dpm was 211.54 dpm, the 50% inhibitory concentration (IC50) was 3.18 nM and the inhibition at 10 µM was 100%.

For the compound `O=C1CC(C(=O)N2CCc3ccccc3C2CN2CCCC2)c2ccccc21` (centres unmarked) [I-1, 1-(pyrrolidine-1-methyl)-2-(2,3-dihydro-inden-3-keto-1-carbonyl)-1,2,3,4-tetrahydroisoquinoline], the inhibition at 1 µM in series [1] (setting [6]) was found to be 18.7%. Also, the “analgesic efficacy compared with morphine” value in series [3] (mice hot plate method and mice writhing method) is recorded as “powerful analgesic efficacy”. Further, in series [3], the “Analgesic experiment result, Mice hot plate method” value is recorded as 44.147(25.134-77.545) ug/kg. Besides, in series [2], the Ki worked out at 0.438 nM, the dpm is on record as 212.91 dpm, the IC50 was determined as 1.53 nM and the inhibition at 10 µM came to 100%. The “Analgesic experiment result, Mice writhing assay” value in series [5] is given as 26.303(16.807-41.165) ug/kg.

Take `COc1ccc2c(c1)C(CN1CCCC1)N(C(=O)C1CC(=O)c3cc(OC)c(OC)cc31)CC2` (centres unmarked) [I-15, 7-methoxy-1-(pyrrolidine-1-methyl)-2-(5,6-dimethoxy-2,3-dihydro-inden-3-keto-1-carbonyl)-1,2,3,4-tetrahydroisoquinoline]: the “inhibition rate of medicine at 1 × 10^−6 M (μ)” value in series [1] (setting [6]) is reported as 11.7% (^−6)^a. Further, in series [2], the dpm stood at 820.16 dpm and the inhibition rate % stood at 82.3%.

In series [2], `COc1ccc2c(c1)C(C(=O)N1CCc3ccc(OC)cc3C1CN1CCCC1)CC2=O` (centres unmarked) [I-19, 7-methoxy-1-(pyrrolidine-1-methyl)-2-(6-methoxy-2,3-dihydro-inden-3-keto-1-carbonyl)-1,2,3,4-tetrahydroisoquinoline] gave a dpm of 799.91 dpm and an inhibition rate % of 82.9%.

On to `COc1cc2c(cc1OC)C(CN1CCCC1)N(C(=O)C1CC(=O)c3cc(OC)c(OC)cc31)CC2` (centres unmarked) [I-27, 6,7-dimethoxy-1-(pyrrolidine-1-methyl)-2-(5,6-dimethoxy-2,3-dihydro-inden-3-keto-1-carbonyl)-1,2,3,4-tetrahydroisoquinoline], for which, in series [2], the dpm came to 5257.44 dpm and the inhibition rate % was found to be 0%.

In series [2], `COc1ccc2c(c1)C(C(=O)N1CCc3cc(OC)c(OC)cc3C1CN1CCCC1)CC2=O` (centres unmarked) [I-31, 6,7-dimethoxy-1-(pyrrolidine-1-methyl)-2-(6-methoxy-2,3-dihydro-inden-3-keto-1-carbonyl)-1,2,3,4-tetrahydroisoquinoline] yielded a dpm of 3271.85 dpm and an inhibition rate % of 11.2%.

A word on the inhibition: it is the relative decrease from the control value, in per cent. A word on the Ki: it is the dissociation constant of the complex between target and ligand, obtained from inhibition or displacement. A higher Ki goes with lower affinity. The IC50 is the concentration needed to halve the response being measured. The melting point is the temperature of the solid-liquid transition.
